The record followed here is publication PMC11901676, “Substrate Selectivities of GH78 α-L-Rhamnosidases from Human Gut Bacteria on Dietary Flavonoid Glycosides” (Molecules, 2025).

What all share (assay): HPLC initial rates, Michaelis-Menten fit
The test system of data set [1] is T1, HFM-RhaC.
T1 construct: recombinant in E. coli BL21(DE3), Ni-NTA purified
It is filed as biochemical, metagenome: human feces. To be noted: 50 mM sodium phosphate pH 6.0, 37 °C, 5 min. From the text: HPLC initial rates, Michaelis-Menten fit on HFM-RhaC

The test system of data set [2] is T2, HFM-RhaA.
T2 construct: recombinant in E. coli BL21(DE3), Ni-NTA purified; catalytic residues Glu448 (acid) and Glu715 (base); AlphaFold2 model said to be in UniProt
It is filed as biochemical, metagenome: human feces. The conditions noted are these: 50 mM sodium phosphate pH 6.0, 37 °C, 5 min. From the text: HPLC initial rates, Michaelis-Menten fit on HFM-RhaA

Data set [3] has as its system T3, HFM-Rha78.
T3 construct: recombinant in E. coli BL21(DE3), Ni-NTA purified
It is filed as biochemical, metagenome: human feces. To be noted: 50 mM sodium phosphate pH 6.5, 37 °C, 5 min. The text has this:
HPLC initial rates, Michaelis-Menten fit on HFM-Rha78

Substrate in data set [4]: C[C@@H]1O[C@@H](OC[C@H]2O[C@@H](Oc3c(-c4ccc(O)c(O)c4)oc4cc(O)cc(O)c4c3=O)[C@H](O)[C@@H](O)[C@@H]2O)[C@H](O)[C@H](O)[C@H]1O
Type of data set: biochemical, Bacteroides thetaiotaomicron. To be noted: 50 mM sodium phosphate pH 6.5, 37 °C, 5 min. From the text:
(§1) HPLC initial rates, Michaelis-Menten fit on BtRha78A

Substrate in data set [5]: COc1ccc([C@@H]2CC(=O)c3c(O)cc(O[C@@H]4O[C@H](CO[C@@H]5O[C@@H](C)[C@H](O)[C@@H](O)[C@H]5O)[C@@H](O)[C@H](O)[C@H]4O)cc3O2)cc1O
It is filed as biochemical, Bacteroides thetaiotaomicron. The conditions noted are these: 50 mM sodium phosphate pH 6.5, 37 °C, 5 min.
Excerpt: as §1

In general, Km refers to the concentration of substrate that gives half-maximal velocity. The term kcat denotes the maximal rate divided by the concentration of active sites. As a reminder, the kcat/Km is the second-order rate constant that governs catalysis at low substrate concentration.

On to `COc1ccc([C@@H]2CC(=O)c3c(O)cc(O[C@@H]4O[C@H](CO[C@@H]5O[C@@H](C)[C@H](O)[C@@H](O)[C@H]5O)[C@@H](O)[C@H](O)[C@H]4O)cc3O2)cc1O` [Hesperidin], for which the Km in data set [1] came to 2160 µM.

On to `C[C@@H]1O[C@@H](O[C@H]2[C@H](Oc3cc(O)c4c(c3)O[C@H](c3ccc(O)cc3)CC4=O)O[C@H](CO)[C@@H](O)[C@@H]2O)[C@H](O)[C@H](O)[C@H]1O` [Naringin], for which the Km in data set [1] was 2290 µM; in data set [2] it was 1920 µM; in data set [3], 5970 µM.

In the case of `COc1ccc([C@@H]2CC(=O)c3c(O)cc(O[C@@H]4O[C@H](CO)[C@@H](O)[C@H](O)[C@H]4O[C@@H]4O[C@@H](C)[C@H](O)[C@@H](O)[C@H]4O)cc3O2)cc1O` [Neohesperidin], the results for the Km in data set [1], in data set [2] and in data set [3] were 3250 µM, 530 µM and 3970 µM, respectively.

As for `C[C@@H]1O[C@@H](OC[C@H]2O[C@@H](Oc3c(-c4ccc(O)c(O)c4)oc4cc(O)cc(O)c4c3=O)[C@H](O)[C@@H](O)[C@@H]2O)[C@H](O)[C@H](O)[C@H]1O` [Rutin], the Km is 5050 µM in data set [1] and 1240 µM in data set [2].

B1: BtRha78A (Bacteroides thetaiotaomicron VPI-5482) (protein)
chain: MILLGALSLASSTFAQTWIWYPGDYEIWLGNQMNNRRTERGAFFPPFWKTDSHYVVVEFSKVLNLSEPEEVFIAAEGTYNVKLDGKLQFGMPETLLLPAGKHSLNIKVWNQATPPTIYVKGKTVNSDSSWRVTYEDKEWIDESGKASDTSATIYMDAGCWNFDGATQRPSQFSLMREPQQPVAKTEQPEGGILYDFGKETFGFITLKNLSGKGKIDLYYGESPEEAKDKAYCETLDKLLLEPGQITDLAIRSTSPLHHSDNEYTLENSKAFRYVYITHEPEVQIGEVSMQYEYLPEEYRGNFRCNDEELNCIWEVGAYTMHLTTREFFIDGIKRDRWVWSGDAIQSYLMNYYLFFDSESVKRTIWLLRGKDPVTSHSNTIMDYTFYWFLSVYDYYMYSGDRHFVNQLYPRMQTMMDYVLGRTNKNGMVEGMSGDWVFVDWADGYLDKKGELSFEQVLFCRSLETMALCADLVGDKDGQQKYEKLASALKAKLEPTFWNNQKQAFVHNCVDGRQSDAVTRYANMFSVFFDYLNADKQQAIKQSVLLNDEILKITTPYMRFYELEALCALGEQETVMKEMKAYWGGMLKAGATSFWEKYNPEESGTQHLAMYGRPYGKSLCHAWGASPIYLLGKYYLGVKPTKEGYKEFAVSPVLGGLKWMEGTVPTPNGDIHVYMDNKTIKVKATEGKGYLTIQSRRQPKANMGTVEKVSEGVWRLWIDSPEERIVTYRL
notes: recombinant in E. coli BL21(DE3), Ni-NTA purified
As to B1, in data set [4], the Km was determined as 2380 µM, the kcat came out at 0.47 s⁻¹ and the kcat/Km is 200 M⁻¹ s⁻¹. Further, in data set [5], the Km was determined as 2780 µM, the kcat came to 8.73 s⁻¹ and the kcat/Km worked out at 3140 M⁻¹ s⁻¹.
